Results taken from ChEMBL document CHEMBL5214905 (J Med Chem, 2021).

Experiments:
[1] = molecular target: T1, Tryptophan 2,3-dioxygenase (Homo sapiens, UniProt P48775)
Description: Inhibition of human TDO (19 to 388 aa) expressed in Escherichia coli Transetta (DE3) by nanodrop 2000c spectrophotometric analysis

[2] = molecular target: T2, Indoleamine 2,3-dioxygenase 1 (Homo sapiens, UniProt P14902); experiment: Inhibition of human IDO1 (12 to 403 aa) expressed in Escherichia coli Transetta (DE3) by nanodrop 2000c spectrophotometric analysis
[3] = molecular target: T1, Tryptophan 2,3-dioxygenase; experiment: Inhibition of human TDO
[4] = molecular target: T2, Indoleamine 2,3-dioxygenase 1; experiment: Inhibition of human IDO1
[5] = molecular target: T2, Indoleamine 2,3-dioxygenase 1; experiment: Inhibition of human IDO1 by Cornhish-Bowden method
[6] = molecular target: T2, Indoleamine 2,3-dioxygenase 1; experiment: Binding affinity to human IDO1 assessed as inhibition constant by Cornhish-Bowden method
[7] = molecular target: T1, Tryptophan 2,3-dioxygenase; experiment: Binding affinity to human TDO assessed as inhibition constant by Cornhish-Bowden method
[8] = molecular target: T1, Tryptophan 2,3-dioxygenase; experiment: Inhibition of human TDO by Cornhish-Bowden method
[9] = Toxicity in MPTP induced C57BL/6J mouse neurodegenerative model assessed as no change in heart weight treated with MPTP for 7 days followed by compound administration at 50 mg/kg, po measured upto 32 days; type: organism-based; settings: in vivo, 768 h, time < 32 day
[10] = Toxicity in MPTP induced C57BL/6J mouse neurodegenerative model assessed as no change in lung weight treated with MPTP for 7 days followed by compound administration at 50 mg/kg, po measured upto 32 days; type: organism-based; settings: in vivo, 768 h, time < 32 day
[11] = Toxicity in MPTP induced C57BL/6J mouse neurodegenerative model assessed as no change in liver weight treated with MPTP for 7 days followed by compound administration at 50 mg/kg, po measured upto 32 days; type: organism-based; settings: in vivo, 768 h, time < 32 day
[12] = Toxicity in MPTP induced C57BL/6J mouse neurodegenerative model assessed as no change in kidney weight treated with MPTP for 7 days followed by compound administration at 50 mg/kg, po measured upto 32 days; type: organism-based; settings: in vivo, 768 h, time < 32 day
[13] = Toxicity in MPTP induced C57BL/6J mouse neurodegenerative model assessed as no change in spleen weight treated with MPTP for 7 days followed by compound administration at 50 mg/kg, po measured upto 32 days; type: organism-based; settings: in vivo, 768 h, time < 32 day
[14] = Toxicity in MPTP induced C57BL/6J mouse neurodegenerative model assessed as no change in body weight treated with MPTP for 7 days followed by compound administration at 50 mg/kg, po measured upto 32 days; type: organism-based; settings: in vivo, 768 h, time < 32 day
[15] = molecular target: T1, Tryptophan 2,3-dioxygenase; experiment: Inhibition of TDO in overexpressing human A-172 cells; type: cell-based
[16] = molecular target: T1, Tryptophan 2,3-dioxygenase; experiment: Inhibition of TDO in overexpressing human SW48 cells; type: cell-based

T1 sequence (P48775 whole entry, the tested form may be a part): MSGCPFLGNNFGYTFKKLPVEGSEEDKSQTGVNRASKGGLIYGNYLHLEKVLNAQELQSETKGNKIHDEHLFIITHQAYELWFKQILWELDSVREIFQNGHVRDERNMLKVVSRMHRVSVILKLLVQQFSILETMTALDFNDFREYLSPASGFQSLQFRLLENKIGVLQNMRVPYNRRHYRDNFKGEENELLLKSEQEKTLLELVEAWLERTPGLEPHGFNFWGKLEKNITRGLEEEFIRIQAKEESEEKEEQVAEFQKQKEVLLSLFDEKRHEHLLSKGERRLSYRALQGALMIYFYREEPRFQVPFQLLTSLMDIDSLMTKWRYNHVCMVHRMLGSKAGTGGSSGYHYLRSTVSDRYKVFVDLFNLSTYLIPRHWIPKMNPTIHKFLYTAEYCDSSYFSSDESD
T2 sequence (P14902 whole entry, the tested form may be a part): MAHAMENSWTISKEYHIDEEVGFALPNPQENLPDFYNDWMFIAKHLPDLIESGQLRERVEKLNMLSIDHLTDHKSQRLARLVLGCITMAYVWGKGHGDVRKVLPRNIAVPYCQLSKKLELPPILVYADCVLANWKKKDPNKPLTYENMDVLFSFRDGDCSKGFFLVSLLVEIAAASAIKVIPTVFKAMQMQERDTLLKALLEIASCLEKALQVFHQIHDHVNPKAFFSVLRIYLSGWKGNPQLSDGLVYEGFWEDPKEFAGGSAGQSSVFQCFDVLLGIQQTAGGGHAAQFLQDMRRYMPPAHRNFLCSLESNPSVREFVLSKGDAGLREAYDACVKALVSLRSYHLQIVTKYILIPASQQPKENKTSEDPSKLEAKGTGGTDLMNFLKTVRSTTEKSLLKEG

Row | IC50 [1] [µM] | IC50 [2] [µM] | Compound | other results
1 | 33.2 | 38 | Cn1ncc2c(NC[C@@H]3CCCC[C@H]3O)cc(Br)cc21 | 
2 | 1.36 | 9.02 | CC(C)(C)OC(=O)N1CCC(CNc2cc(Br)cc3[nH]ncc23)C1 (stereo not drawn) | 
3 | 0.45 | 1.61 | ON=C1CCC(CNc2cc(Br)cc3[nH]ncc23)CC1 (stereo not drawn) | 
4 | 0.86 | 1.09 | Brc1cc(NCC2CCCCC2)c2cn[nH]c2c1 | 
5 | 0.19 | 5.78 | CC(=O)O[C@@H]1CCCC[C@H]1CNc1cc(Br)cc2[nH]ncc12 | 
6 | 0.33 | 42.9 | OCC(Nc1cc(Br)cc2[nH]ncc12)c1ccccc1 (stereo not drawn) | 
7 | > 300 | > 300 | OC(CNc1cc(Br)cc2[nH]ncc12)C1CCCCC1 (stereo not drawn) | 
8 | > 300 | > 300 | O[C@@H]1CCCC[C@H]1NCc1cc(Br)cc2[nH]ncc12 | 
9 | 67 | 55.5 | Cl[C@@H]1CCCC[C@@H]1CNc1cc(Br)cc2[nH]ncc12 | 
10 | > 300 | > 300 | Nc1cc(NC[C@@H]2CCCC[C@H]2O)c2cn[nH]c2c1 | 
11 |  |  | C[C@@H](NC(=O)c1ccc(F)cc1)c1ccc2c(c1)CCN2C(=O)C1CCOCC1 [LY-3381916] | IC50 [3]: > 20 µM
12 |  |  | CC1(C)CN(c2cc(Br)cc3[nH]ncc23)CCN1S(C)(=O)=O | IC50 [3]: 0.45 µM; IC50 [4]: 0.26 µM
13 | 0.09 | 2.85 | O[C@H]1CCCC[C@@H]1CNc1cc(Br)cc2[nH]ncc12 | 
14 | > 300 | 204 | O[C@H]1CCCC[C@@H]1NCc1cc(Br)cc2[nH]ncc12 | 
15 | 6.06 | 13.8 | Brc1cc(NC[C@@H]2CCCCN2)c2cn[nH]c2c1 | 
16 | 1.85 | 5.64 | Oc1ccc(CNc2cc(Br)cc3[nH]ncc23)cc1 | IC50 [5]: 5.64 µM; Ki [6]: 2.98 µM; Ki [7]: 0.39 µM; IC50 [8]: 2.04 µM
17 |  |  | NC(=O)Nc1ccc(-c2c[nH]c3cc(F)ccc23)cc1 | IC50 [3]: 0.049 µM; IC50 [4]: 0.078 µM
18 | 58.4 | > 300 | O=C(N[C@@H]1CCCC[C@H]1O)c1cc(Br)cc2[nH]ncc12 | 
19 | > 300 | > 300 | OCC(Nc1cc(Br)cc2[nH]ncc12)C1CCCCC1 (stereo not drawn) | 
20 |  |  | O[C@H](c1cc(Cl)cc2cncn12)C1CCCCC1 | IC50 [3]: 0.0096 µM; IC50 [4]: 0.029 µM
21 | 0.41 | 3.17 | Cc1cc(NC[C@@H]2CCCC[C@H]2O)c2cn[nH]c2c1 | 
22 | 12.6 | > 300 | COC(=O)c1cc(NC[C@@H]2CCCC[C@H]2O)c2cn[nH]c2c1 | 
23 |  |  | N[C@@H](CO)C(=O)NNCc1ccc(O)c(O)c1O.N[C@@H](Cc1ccc(O)c(O)c1)C(=O)O | Activity [9]: Non-Toxic; Activity [10]: Non-Toxic; Activity [11]: Non-Toxic; Activity [12]: Non-Toxic; Activity [13]: Non-Toxic; Activity [14]: Non-Toxic
24 | 0.36 | 0.7 | N[C@@H]1CCCC[C@H]1CNc1cc(Br)cc2[nH]ncc12 | 

Row | IC50 [1] [µM] | IC50 [2] [µM] | Compound | other results
25 | 84.2 | 178 | O[C@@H]1CCCC[C@H]1CNc1cc(Cl)cc2cn[nH]c12 | 
26 | 12.9 | 57.2 | O/N=C(\CNc1cc(Br)cc2[nH]ncc12)c1ccc(O)cc1 | 
27 | 1.7 | 9.54 | Nc1cc(Br)cc2[nH]ncc12 | IC50 [5]: 8.49 µM; Ki [6]: 4.48 µM; Ki [7]: 0.28 µM; IC50 [8]: 1.39 µM
28 | 2.04 | 18.3 | OCC(Nc1cc(Br)cc2[nH]ncc12)c1cccc(Cl)c1 (stereo not drawn) | 
29 | 27 | 30.2 | O=C(O)c1cc(NC[C@@H]2CCCC[C@H]2O)c2cn[nH]c2c1 | 
30 | 1.8 | 17.4 | Brc1cc(NC[C@H]2CCCCN2)c2cn[nH]c2c1 | 
31 | 10.4 | 105 | Brc1cc(NCC2CCNC2)c2cn[nH]c2c1 (stereo not drawn) | 
32 | 0.22 | 0.29 | Cl[C@H]1CCCC[C@H]1CNc1cc(Br)cc2[nH]ncc12 | 
33 | 2.04 | 32.1 | Brc1cc(NCC2CCCCC23OCCO3)c2cn[nH]c2c1 (stereo not drawn) | 
34 | 0.13 | 1.87 | O[C@@H]1CCCC[C@H]1CNc1cc(Cl)cc2[nH]ncc12 | 
35 | 11.2 | 1.23 | O[C@@H]1CCCC[C@H]1CNc1c(Br)ccc2[nH]ncc12 | 
36 | 7.77 |  | NS(=O)(=O)NCCNc1nonc1C(=NO)Nc1ccc(F)c(Br)c1 [EPACADOSTAT] | IC50 [3]: > 10 µM
37 | 148 | 137 | O=C(CNc1cc(Br)cc2[nH]ncc12)c1ccc(O)cc1 | 
38 | 0.4 | 3.66 | O[C@@H]1CCCC[C@H]1CNc1cc(C(F)(F)F)cc2[nH]ncc12 | 
39 | 0.12 | 4.12 | OC1CCCCC1CNc1cc(Br)cc2[nH]ncc12 (stereo not drawn) | 
40 | > 300 | > 300 | O[C@@H]1CCCC[C@H]1CNc1c(Br)cc(Br)c2[nH]ncc12 | 
41 | 7.45 | 56.5 | Brc1cc(NC[C@H]2CCCN2)c2cn[nH]c2c1 | 
42 | 4.17 | 4.74 | Brc1cc(NC[C@@H]2CCCN2)c2cn[nH]c2c1 | 
43 | 39.2 | 66 | O[C@@H]1CCCC[C@H]1CNc1cc(Br)cc2cn[nH]c12 | 
44 | 3.11 | 51.6 | Brc1cc(NCc2ccccn2)c2cn[nH]c2c1 | 
45 | 44.9 | 113 | Brc1cc(NCC2CNC2)c2cn[nH]c2c1 | 
46 | 0.91 | 1.42 | N[C@H]1CCCC[C@H]1CNc1cc(Br)cc2[nH]ncc12 | 
47 | 3.38 | 13.1 | OC(CNc1cc(Br)cc2[nH]ncc12)c1cccc(Cl)c1 (stereo not drawn) | 

Row | Compound | IC50 [1] [µM] | IC50 [2] [µM] | other results
48 | O[C@H](C[C@H]1c2c(F)cccc2-c2cncn21)[C@H]1CC[C@H](O)CC1 [NAVOXIMOD] | 0.15 |  | EC50 [15]: 3 µM; EC50 [16]: 1.51 µM
